In assay [1] the target is T1, 5α-Reductase of Rat Liver Microsomes (Rattus norvegicus, UniProt P24008).
T1 sequence (P24008 1-259): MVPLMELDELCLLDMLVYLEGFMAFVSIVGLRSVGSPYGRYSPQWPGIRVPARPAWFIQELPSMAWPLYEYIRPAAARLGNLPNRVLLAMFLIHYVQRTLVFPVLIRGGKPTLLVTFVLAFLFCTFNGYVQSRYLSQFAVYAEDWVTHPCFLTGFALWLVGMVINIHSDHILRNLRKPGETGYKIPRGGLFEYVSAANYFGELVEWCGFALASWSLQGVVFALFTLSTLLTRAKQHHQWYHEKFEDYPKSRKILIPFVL

For another assay, the system named is 5α-reductase. The experiment in a line: Catechin gallates in rat liver microsomes or cells expressing type 1 or type 2 5α-reductase. It is filed as biochemical. The note with it: vs catechin gallate. On the technique in general: Liver microsomes are a subcellular fraction often used to study metabolism.
Assay [2] addresses T1, 5α-Reductase of Rat Liver Microsomes. The experiment in a line: biochemical. The note with it: 1 h, read-out: stimulation of [^3 H]4-MA binding.

Like-named read-outs stand apart in the source and are kept apart here. Some results are limits rather than exact numbers.

The term IC50 denotes the concentration at which inhibition is half-maximal. A high value points to a need for much substance.

On to `CCCCC[C@H](O)/C=C/C1=C(CCCCCCC(=O)O)C(=O)CC1` [prostaglandin B1], for which the “inhibitory activity in [^3 H]4-MA binding assay” value in assay [1] (0.2 mM) is “somewhat active”.

As to `CCCCC[C@H](O)/C=C/C1=C(C/C=C\CCCC(=O)O)C(=O)CC1` [prostaglandin B2], the “inhibitory activity in [^3 H]4-MA binding assay” value in assay [1] (0.2 mM) is listed as “somewhat active”.

As to `CCCCC[C@H](O)/C=C/[C@H]1C(=O)C[C@H](O)[C@@H]1C/C=C\CCCC(=O)O` [prostaglandin D2], in assay [1] (0.2 mM), the “inhibitory activity in [^3 H]4-MA binding assay” value was “somewhat active”.

Consider `CCCCC[C@H](O)/C=C/[C@H]1[C@H](O)CC(=O)[C@@H]1CCCCCCC(=O)O` [prostaglandin E1], for which, in assay [1] (0.2 mM), the “inhibitory activity in [^3 H]4-MA binding assay” value is “somewhat active”.

Take `CCCCC[C@H](O)/C=C/[C@@H]1[C@@H](CCCCCCC(=O)O)[C@@H](O)C[C@H]1O` [prostaglandin F1a]: the “inhibitory activity in [^3 H]4-MA binding assay” value in assay [1] (0.2 mM) is listed as “somewhat active”.

Regarding `Oc1cccc(O)c1O` [pyrogallol], the “inhibitory activity” value with 5α-reductase is on record as “not as active as catechin gallate”.

On to `CC1=C(/C=C/C(C)=C/C=C/C(C)=C/C=O)C(C)(C)CCC1` [retinal], for which the activation at 200 µM in assay [2] was found to be 58%. In addition, the “stimulation or inhibition of [^3 H]4-MA binding” value in assay [1] (40 μM) is listed as “no stimulation or inhibition”.

Take `CC1=C(/C=C/C(C)=C/C=C/C(C)=C/C(=O)O)C(C)(C)CCC1` [retinoic acid]: the “inhibitory activity in [^3 H]4-MA binding assay” value in assay [1] was “inactive”.

Regarding `CC1=C(/C=C/C(C)=C/C=C/C(C)=C/CO)C(C)(C)CCC1` [retinol], in assay [1], the “inhibitory activity in [^3 H]4-MA binding assay” value is given as “slightly stimulatory”.

For Phosphatidylcholine, the “inhibitory activity in [^3 H]4-MA binding assay” value in assay [1] is recorded as “slightly stimulatory”.

As to carotenes, the “inhibitory activity in [^3 H]4-MA binding assay” value in assay [1] is “inactive”.

di-γ-linolenin displayed an IC50 in assay [1] above 200 µM. Also, the “% Inhibition of [^3 H]4-MA binding” value in assay [1] (Table 2, 10 μM) is “NA (less than 10% inhibition were considered not active (NA))”; in assay [1] (Table 2, 40 μM), “NA (less than 10% inhibition were considered not active (NA))”; in assay [1] (Table 2, 200 μM), “NA (less than 10% inhibition were considered not active (NA))”.

heneicosene nitrile: in assay [1], the IC50 was above 200 µM.

methyl docosatetraenoate had an IC50 in assay [1] above 200 µM.

Turning to phosphatidyl ethanolamine, the “inhibitory activity in [^3 H]4-MA binding assay” value in assay [1] was “slightly stimulatory”.

Source of the values: patent US5605929A, “Methods and compositions for inhibiting 5α-reductase activity” (priority 1995, dated 1997).
